Patent US20150011588A1, “Novel formulation, omeprazole antacid complex-immediate release for rapid and sustained suppression of gastric acid” (priority 2003, published 2015)

Tests used:
clinical = conditions: human, plasma, oral, 40 mg
Source text: Pharmacokinetic parameters disclosed herein include: (1) parameters obtained directly from the data without interpolation, including plasma omeprazole concentration, peak omeprazole plasma concentration (Cmax), and time to peak omeprazole plasma concentration (Tmax); (2) terminal elimination rate constant (kel) determined from a log-linear regression analysis of the terminal plasma omeprazole concentrations; (3) terminal elimination half-life (t1/2) calculated as 0.693/kel; (4) area under the omeprazole plasma concentration-time curve from time zero to time “t” (AUCo-t), calculated using the trapezodial rule with the plasma concentration at time “t” being the last measurable concentration; (5) area under the omeprazole plasma concentration-time curve from time zero to time infinity (AUC0-inf), calculated as AUC0-t+Ct/kel, where Ct is the last measurable plasma concentration and kel is the terminal elimination rate constant defined above.
Blood samples (10 mL) were taken within 30 minutes predose and up to 12 hours postdose; eg, postdose at 5, 10, 15, 30, 45, 60, 90, 120, 180, 240, 300, 360 minutes, and up to 12 hours in some studies.
(§1) This trial protocol is designed as a single-dose crossover trial. […] Each dose was followed by a 7-14 day washout. The same treatment was administered to all subjects in each trial period:
For the periods including omeprazole powder plus tablet administration, the subject received omeprazole powder administered directly onto the dorsal mid-tongue Immediately thereafter, subjects were given one chewable antacid tablet, which they began chewing. The subject continued to chew the tablet while mixing it with omeprazole powder, and carefully avoided swallowing the powder immediately. One minute after initiating chewing (and after completely swallowing trial medications), each subject drank 120 mL of water, swishing the oral contents before swallowing.
Pharmacokinetic evaluations include plasma omeprazole and esomeprazole concentration over time; and plasma omeprazole and esomeprazole C., Tmax, kel, T1/2, AUC(0-t), and AUC(0-inf).

gastric acidity = test: SAN-15-CO1C trial: gastric pH monitoring, omeprazole powder with or without antacid; type: in vivo, human; conditions: omeprazole 40 mg, administered 1 hour pre-meal, 10 subjects
Procedure: Pharmacodynamic parameters disclosed herein include: (1) mean gastric acid concentration; (2) onset time of gastric pH increase; (3) gastric pH over time; (4) length of time gastric pH is >4; (5) percentage (%) of time gastric pH is time pH>4 (in figures as “% time pH>4”); (6) median gastric pH; and (7) integrated gastric acidity, which is expressed as mM acid×time, (mmol acid×hr/L) is calculated as the cumulative time-weighted average of mean gastric acid concentration, as follows:
as §1
For periods requiring a meal, subjects fasted for at least 10 hours and were allowed water ad libitum until 2 hours prior to administration. Gastric pH monitoring was recorded for up to 11 hours beginning at time zero. The standard breakfast was ingested over 30 minutes beginning 90 minutes after the initiation of pH monitoring.
For periods including dosing after a meal, subjects fasted for at least 10 hours. On Day 0, ninety minutes of probe pH monitoring was started prior to initiating ingestion of the standardized breakfast, which was eaten within 30 minutes. The pH monitoring continued for 9.5 hours after initiating ingestion of breakfast. […]

## COc1ccc2[nH]c([S+]([O-])Cc3ncc(C)c(OC)c3C)nc2c1 (stereo not shown) [Omeprazole Powder]
clinical
  AUC(0-inf): 225 ng·h/mL
  AUC(0-t): 225 ng·h/mL
  Cmax: 186 ng/mL
Gastric acidity
  Median Integrated Gastric Acidity 0-210 min. Post-meal: 35 mmol·h/L
